From patent publication US20150087627A1, “COMBINATION OF KINASE INHIBITORS AND USES THEREOF” (Intellikine LLC, priority 2011, published 2015)
pIC50: −log10 of the molar value.

Tests used:
[1] = system: Akt phosphorylation at serine 473; test: Western blot of Akt phosphorylation at serine 473 (FIG. 12); format: cell-based
PI3K α (p110α/p85α) = biological target: T1, PI3K α (p110α/p85α) (Homo sapiens, UniProt P42336); test: PI 3-Kinase (human) HTRF assay, PI3K α; format: biochemical; details: over mTOR and other PI3K isoforms; FIG. 6C
T1 construct: purchased Upstate / Millipore Corporation
T1 sequence (P42336 whole entry, canonical isoform): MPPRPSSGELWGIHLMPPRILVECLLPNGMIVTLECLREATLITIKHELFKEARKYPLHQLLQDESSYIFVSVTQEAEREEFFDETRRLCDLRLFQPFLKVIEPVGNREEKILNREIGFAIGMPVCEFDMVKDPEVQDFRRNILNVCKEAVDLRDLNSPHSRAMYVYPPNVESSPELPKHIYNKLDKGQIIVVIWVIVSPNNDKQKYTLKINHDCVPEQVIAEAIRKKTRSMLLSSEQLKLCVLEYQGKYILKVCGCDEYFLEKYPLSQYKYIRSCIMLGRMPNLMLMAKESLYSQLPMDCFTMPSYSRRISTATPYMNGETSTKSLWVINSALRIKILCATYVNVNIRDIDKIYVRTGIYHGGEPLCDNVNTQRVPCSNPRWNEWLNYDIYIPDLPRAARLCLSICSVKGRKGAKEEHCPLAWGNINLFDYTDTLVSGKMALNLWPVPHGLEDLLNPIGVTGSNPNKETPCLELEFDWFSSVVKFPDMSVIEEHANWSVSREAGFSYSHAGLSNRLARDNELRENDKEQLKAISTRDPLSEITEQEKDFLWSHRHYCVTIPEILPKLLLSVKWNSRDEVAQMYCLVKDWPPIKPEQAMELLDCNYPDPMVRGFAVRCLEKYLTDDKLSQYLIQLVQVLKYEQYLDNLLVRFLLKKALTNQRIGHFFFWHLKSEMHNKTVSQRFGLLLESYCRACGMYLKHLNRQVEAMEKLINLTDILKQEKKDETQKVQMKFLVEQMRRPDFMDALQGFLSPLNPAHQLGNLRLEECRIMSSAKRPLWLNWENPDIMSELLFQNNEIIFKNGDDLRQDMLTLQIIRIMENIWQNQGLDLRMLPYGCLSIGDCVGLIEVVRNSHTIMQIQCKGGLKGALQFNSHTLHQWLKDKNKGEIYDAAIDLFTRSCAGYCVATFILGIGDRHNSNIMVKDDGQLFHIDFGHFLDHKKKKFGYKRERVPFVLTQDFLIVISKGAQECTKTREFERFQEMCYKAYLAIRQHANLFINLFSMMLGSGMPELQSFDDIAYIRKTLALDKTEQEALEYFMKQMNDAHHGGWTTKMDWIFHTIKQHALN
T1 sequence (P27986 whole entry partner, canonical isoform): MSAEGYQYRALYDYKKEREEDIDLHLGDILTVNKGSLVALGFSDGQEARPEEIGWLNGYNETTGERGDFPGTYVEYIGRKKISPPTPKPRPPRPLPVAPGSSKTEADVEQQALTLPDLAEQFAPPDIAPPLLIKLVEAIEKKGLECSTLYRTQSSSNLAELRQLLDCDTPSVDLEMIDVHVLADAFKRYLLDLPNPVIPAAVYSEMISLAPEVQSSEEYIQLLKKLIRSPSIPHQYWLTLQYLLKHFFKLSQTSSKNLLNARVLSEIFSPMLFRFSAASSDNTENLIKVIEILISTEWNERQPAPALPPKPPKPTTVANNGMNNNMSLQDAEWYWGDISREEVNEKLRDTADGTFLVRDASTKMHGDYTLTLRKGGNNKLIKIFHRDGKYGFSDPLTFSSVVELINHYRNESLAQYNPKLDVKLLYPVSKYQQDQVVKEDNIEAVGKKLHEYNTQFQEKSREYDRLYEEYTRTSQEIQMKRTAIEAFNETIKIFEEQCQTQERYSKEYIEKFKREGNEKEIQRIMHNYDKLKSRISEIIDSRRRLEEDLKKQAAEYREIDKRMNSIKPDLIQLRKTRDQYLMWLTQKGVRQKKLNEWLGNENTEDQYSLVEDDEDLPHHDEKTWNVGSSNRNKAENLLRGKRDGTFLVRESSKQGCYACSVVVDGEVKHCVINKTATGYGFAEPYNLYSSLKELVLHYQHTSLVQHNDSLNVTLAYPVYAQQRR

PC3 cells = test: Proliferation of tumor cells (CellTiter-Glo); format: cell-based, human; details: read-out: cell proliferation IC50
Procedure: Cells comprising one or more mutations in PI3Kα, including but not limited to breast cancer cells (e.g., MDA-MB-361, T47D, SKOV-3), and cells comprising one or more mutations in PTEN including but not limited to prostate cancer cells (e.g., PC3), are typically grown in cell growth media such as DMEM supplemented with fetal bovine serum and/or antibiotics, and grown to confluency. Cells are then treated with various concentrations of test compound for about 2 hours and subsequently lysed in cell lysis buffer. Lysates are subjected to SDS-PAGE followed by Western blot analysis to detect downstream signaling markers, including but not limited to pAKT(S473), pAKT(T308), pS6, and p4E-BP1.
Cells were seeded at 5000-10,000 per well in a 96 well flat bottom plate 90 ul growth media. Pre-diluted compound (at 10 times the final concentration) or DMSO (control) was added. The compounds were prepared such that the dose range extended from a final concentration of 30 μM to 14 nM via 3-fold serial dilutions (8 point curve). The final DMSO concentration was 0.3%. Cells were incubated for 72 hours at 37° C. in a CO2 incubator. After 72 hours, proliferation was measured using CellTiter-Glo Luminescent reagent (Promega, PR-G7573). […] Luminescence was read on a PerkinElmer EnVision plate reader. […] Inhibition % was calculated as: 1−(cells+inhibitor)−background signal)/(cells+DMSO)−background signal)×100.

B cell function = test: TNP-Ficoll immunization, antibody production (FIG. 8); format: in vivo; details: mice immunized with TNP-Ficoll, 7 days, 70 mg/kg GDC0941, 30, 60 or 120 mg/kg Compound A
Procedure: Mice were immunized with TNP-Ficoll and treated with 1) vehicle; 2) 70 mg/kg GDC0941; 3) 30 mg/kg Compound A; 4) 60 mg/kg Compound A; or 5) 120 mg/kg Compound A for 7 days. Antibody production was measured as a percentage of control group that were treated with vehicle.

[2] = system: tumor cells harboring PI3K α mutations; test: Tumor cell proliferation panel (FIG. 13); format: cell-based
[3] = Steady state blood glucose in nude mice (Example 41); format: in vivo, Mus musculus; details: mean AUC after the last dose (Day 28)
Procedure: Blood glucose levels were measured via a tail knick using Abbott's “Freestyle Lite” Handheld Blood Glucose Monitor (Abbott Laboratories) at 15, 30, 60, 90, 120, and 1440 minutes after the last dose (Day 28).

[4] = system: MDA-MB-361 (PI3Kα/HER2 carcinoma) tumors; test: In vivo efficacy in xenogenic mouse model of breast cancer; design: species or system Nude mice; details: 60 mg/kg, FIG. 9 left panel
Procedure: Blood glucose was monitored periodically following administration of treatment.
Treatment of tumors (MDA-MB-361) with compounds was discontinued on Day 30. Tumors were measured every 2-5 days.

[5] = system: preclinical breast cancer model; test: Preclinical breast cancer model, tumor weight / volume; format: in vivo; details: 70 mg/kg Pan-PI3K inhibitor; 60 mg/kg compound A; FIG. 9 left panel
[6] = system: anti-TNP antibody production; test: TNP-Ficoll T-cell independent B-cell activation assay; format: in vivo, mice; details: 30, 60 or 120 mg/kg for 7 days, FIG. 8
Procedure: To test the effects of the compounds of the present invention in suppressing T cell independent antibody production, the TNP-Ficoll B-cell activation assay is used as described herein. Compounds of the present invention are dissolved in an appropriate vehicle (e.g. 5% 1-methyl-2-pyrrolidinone, 85% polyethylene glycol 400, 10% Solutor). Compounds are administered orally approximately 1 hr before TNP-Ficoll treatment to 4-10 week old mice. To study the effects of the compounds on B-cell activation, one set of mice are grouped according to the following table:
Four animals in group 1, and eight animals in groups 2 to 7 are euthanized in CO2 2 hours after the last compound administration on day 7. […]
Serum samples are analyzed for anti-TNP antibody titers by ELISA as described herein. […] HRP substrate (200 μl ABTS solution+30% H2O2+10 ml citrate buffer) is added to each well at 100 μl/well, incubated 2-20 minutes in the dark and the amount of anti-TNP IgG3 is determined spectrophotometrically at 405 nm. Similarly, anti-TNP IgM and total anti-TNP Ab are determined using anti-mouse IgM-HRP and anti-mouse Ig-HRP respectively.
Antibody production was measured using ELISA and plotted as a percentage of control group that were treated with vehicle.

[7] = system: mTORC1-dependent NRDG1 phosphorylation; test: Western blot of NRDG1 phosphorylation (FIG. 5B); format: cell-based

| SMILES | Akt phosphorylation at serine 473 ([1]; PTEN-mutant cell line, FIG. 12B) | Akt phosphorylation at serine 473 ([1]; western blot, FIG. 12A) | specificity in inhibiting PI3K α (PI3K α (p110α/p85α)) | pIC50 (PC3 cells) | B cell function in vivo (antibody production as percentage of vehicle control) (B cell function) | proliferation of tumor cells [2] | Blood Glucose Fold Over Vehicle Control ([3]; 60 mg/kg QD) [fold] | Blood Glucose Fold Over Vehicle Control ([3]; 70 mg/kg QD 3on/4off) [fold] | Blood Glucose Fold Over Vehicle Control ([3]; 140 mg/kg QD 3on/4off) [fold] | Blood Glucose Fold Over Vehicle Control ([3]; 210 mg/kg QW) [fold] | tumor weight [4] | tumor weight of a breast cancer model [5] | B cell function in vivo (antibody production, ELISA) [6] | sensitivity of mTORC1-dependent NRDG1 phosphorylation [7] |
| --- | --- | --- | --- | --- | --- | --- | --- | --- | --- | --- | --- | --- | --- | --- |
| Nc1nc2cc(-c3ccc4ncc(C(=O)N5CCOCC5)n4c3)ccc2o1 [Compound A] | reduced inhibition of Akt phosphorylation at serine 473 | inhibition of Akt phosphorylation at serine 473 | specificity of Compound A in inhibiting PI3K α over mTOR and other PI3K isoforms | < 5.00 | not | preferentially inhibits proliferation of tumor cells harboring PI3K α mutations | 0.97 | 1.02 | 1.26 | 1.16 | reduction in tumor weight | reduction in tumor weight | not |  |
| CC(C)n1nc(-c2ccc3oc(N)nc3c2)c2c(N)ncnc21 [Compound B] |  |  |  |  |  |  |  |  |  |  |  |  |  | sensitivity |
